The results in this text go back to ChEMBL document CHEMBL5465560, “Selectivity Literature for EUbOPEN Chemogenomic Library” (2024).

Test [1] has as its target Serine/threonine-protein kinase 24 (Homo sapiens) (UniProt Q9Y6E0). As to the kind of experiment: Selectivity interaction (Kinase panel (Z-LYTE Assay)) EUB0001632a STK24. Conditions: at 10 µM.
Test [2] deals with Tyrosine-protein kinase receptor UFO (Homo sapiens) (UniProt P30530). As to the kind of experiment: Selectivity interaction (KinomeScan (DiscoverX)) EUB0001619a AXL. Conditions: at 1 µM.
For test [3], the target named is T1, Serine/threonine-protein kinase TBK1 (Homo sapiens) (UniProt Q9UHD2).
T1 sequence (whole entry): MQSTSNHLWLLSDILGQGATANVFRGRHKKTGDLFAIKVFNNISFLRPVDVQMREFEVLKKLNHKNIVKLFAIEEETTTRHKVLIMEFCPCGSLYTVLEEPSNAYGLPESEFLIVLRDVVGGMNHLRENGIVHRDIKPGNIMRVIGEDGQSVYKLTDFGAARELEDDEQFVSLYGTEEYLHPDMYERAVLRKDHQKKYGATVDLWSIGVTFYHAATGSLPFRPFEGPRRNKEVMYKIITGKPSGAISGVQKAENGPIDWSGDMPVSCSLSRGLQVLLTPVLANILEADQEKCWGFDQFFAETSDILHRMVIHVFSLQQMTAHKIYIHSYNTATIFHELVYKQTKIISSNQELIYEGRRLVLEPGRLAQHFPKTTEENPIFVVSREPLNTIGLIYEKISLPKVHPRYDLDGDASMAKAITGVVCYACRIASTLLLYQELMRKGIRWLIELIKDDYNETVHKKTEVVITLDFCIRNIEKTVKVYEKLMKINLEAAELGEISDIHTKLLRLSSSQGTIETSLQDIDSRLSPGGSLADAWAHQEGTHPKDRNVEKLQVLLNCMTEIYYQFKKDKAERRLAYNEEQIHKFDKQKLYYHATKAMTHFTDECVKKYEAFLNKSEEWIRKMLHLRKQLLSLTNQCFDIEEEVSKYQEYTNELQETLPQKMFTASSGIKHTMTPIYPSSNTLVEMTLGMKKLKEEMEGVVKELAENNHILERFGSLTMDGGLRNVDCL
As to the kind of experiment: Selectivity interaction (KinomeScan (DiscoverX)) EUB0000666a TBK1. To be noted: at 10 µM.

Test [4] concerns the target Cyclin-dependent kinase 2 (Homo sapiens, UniProt P24941). Conditions: at 10 µM.
Test [5] concerns the target T2, Serine/threonine-protein kinase LATS1 (Homo sapiens) (UniProt O95835).
T2 sequence (whole entry): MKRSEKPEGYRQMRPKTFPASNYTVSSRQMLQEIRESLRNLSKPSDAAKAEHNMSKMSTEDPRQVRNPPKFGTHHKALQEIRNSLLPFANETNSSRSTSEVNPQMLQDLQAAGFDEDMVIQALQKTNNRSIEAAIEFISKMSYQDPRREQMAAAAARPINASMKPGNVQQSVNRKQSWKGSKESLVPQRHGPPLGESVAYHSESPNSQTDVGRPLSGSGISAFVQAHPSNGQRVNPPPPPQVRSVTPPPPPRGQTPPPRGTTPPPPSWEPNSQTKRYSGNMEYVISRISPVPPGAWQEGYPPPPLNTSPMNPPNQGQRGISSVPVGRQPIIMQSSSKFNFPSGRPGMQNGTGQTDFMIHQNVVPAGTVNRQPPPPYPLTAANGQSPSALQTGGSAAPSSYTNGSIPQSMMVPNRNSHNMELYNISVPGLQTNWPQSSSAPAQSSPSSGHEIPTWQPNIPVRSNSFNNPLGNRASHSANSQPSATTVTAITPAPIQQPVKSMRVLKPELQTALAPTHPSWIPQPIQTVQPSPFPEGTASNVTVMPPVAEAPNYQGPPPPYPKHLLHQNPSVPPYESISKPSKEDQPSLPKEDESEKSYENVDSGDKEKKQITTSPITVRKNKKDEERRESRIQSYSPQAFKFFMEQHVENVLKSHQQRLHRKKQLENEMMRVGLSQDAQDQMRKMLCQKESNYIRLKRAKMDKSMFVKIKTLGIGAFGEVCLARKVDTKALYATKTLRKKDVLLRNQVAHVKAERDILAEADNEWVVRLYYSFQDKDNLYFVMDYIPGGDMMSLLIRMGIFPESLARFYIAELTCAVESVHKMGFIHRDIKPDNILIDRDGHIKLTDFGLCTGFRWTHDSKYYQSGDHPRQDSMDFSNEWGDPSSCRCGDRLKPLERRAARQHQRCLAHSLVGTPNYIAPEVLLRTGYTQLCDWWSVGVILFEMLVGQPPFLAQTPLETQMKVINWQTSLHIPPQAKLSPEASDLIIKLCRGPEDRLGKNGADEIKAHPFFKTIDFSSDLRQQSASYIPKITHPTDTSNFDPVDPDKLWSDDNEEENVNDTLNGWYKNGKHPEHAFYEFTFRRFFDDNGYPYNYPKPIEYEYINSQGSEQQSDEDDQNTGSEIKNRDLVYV
Nature of the test: Selectivity interaction (ActivX KiNativ screen (kinase selectivity in THP-1 cell lysates)) EUB0000639a LATS1. The class given is subcellular. To be noted: lysate.

For test [6], the system named is Epidermal growth factor receptor (Homo sapiens), P00533 [G719S]. As to the kind of experiment: (§1) Selectivity interaction (KinomeScan (DiscoverX)) EUB0001049a EGFR. Conditions: at 1 µM.
The test system of test [7] is Epidermal growth factor receptor (Homo sapiens), P00533 [UNDEFINED MUTATION]. The description is as §1. Conditions: at 1 µM.
Test [8] concerns Epidermal growth factor receptor (Homo sapiens), P00533 [G719C]. The description is as §1. To be noted: at 1 µM.
In test [9] the test system is Epidermal growth factor receptor (Homo sapiens), P00533 [L861Q]. The description is as §1. Conditions: at 1 µM.
In test [10] the test system is Epidermal growth factor receptor (Homo sapiens), P00533 [L858R]. Described as §1. To be noted: at 1 µM.
In test [11] the target is Epidermal growth factor receptor (Homo sapiens, UniProt P00533). The test is described as §1. Conditions: at 1 µM.
Test [12] has as its system Epidermal growth factor receptor (Homo sapiens), P00533 [L858R,T790M]. The description is as §1. Conditions: at 1 µM.
Test [13] concerns Epidermal growth factor receptor (Homo sapiens), P00533 [T790M]. The description is as §1. To be noted: at 1 µM.

Tyrosine-protein kinase receptor UFO (Homo sapiens), sequence (P30530 whole entry): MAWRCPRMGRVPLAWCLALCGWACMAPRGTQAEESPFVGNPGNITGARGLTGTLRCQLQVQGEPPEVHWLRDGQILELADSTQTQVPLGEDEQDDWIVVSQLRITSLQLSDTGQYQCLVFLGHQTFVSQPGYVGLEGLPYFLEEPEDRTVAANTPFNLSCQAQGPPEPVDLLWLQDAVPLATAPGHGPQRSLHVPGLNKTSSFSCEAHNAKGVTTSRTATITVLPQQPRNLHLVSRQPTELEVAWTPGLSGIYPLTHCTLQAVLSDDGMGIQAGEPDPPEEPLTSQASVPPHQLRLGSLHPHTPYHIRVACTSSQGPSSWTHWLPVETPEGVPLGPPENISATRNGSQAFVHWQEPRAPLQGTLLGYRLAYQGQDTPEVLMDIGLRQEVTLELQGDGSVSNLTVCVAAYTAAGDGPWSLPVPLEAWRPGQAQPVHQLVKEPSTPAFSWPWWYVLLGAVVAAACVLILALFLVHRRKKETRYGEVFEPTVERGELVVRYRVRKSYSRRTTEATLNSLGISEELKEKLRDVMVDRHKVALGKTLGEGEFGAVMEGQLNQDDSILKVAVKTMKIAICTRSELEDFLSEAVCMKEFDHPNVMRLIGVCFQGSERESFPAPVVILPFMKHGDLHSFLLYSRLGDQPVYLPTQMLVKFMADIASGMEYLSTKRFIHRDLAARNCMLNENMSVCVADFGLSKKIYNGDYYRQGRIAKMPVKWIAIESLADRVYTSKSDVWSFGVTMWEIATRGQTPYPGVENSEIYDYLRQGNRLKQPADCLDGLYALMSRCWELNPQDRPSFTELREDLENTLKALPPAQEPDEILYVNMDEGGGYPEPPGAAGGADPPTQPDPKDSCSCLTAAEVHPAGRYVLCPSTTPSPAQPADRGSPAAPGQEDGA
Serine/threonine-protein kinase 24 (Homo sapiens), sequence (Q9Y6E0 whole entry, looked up): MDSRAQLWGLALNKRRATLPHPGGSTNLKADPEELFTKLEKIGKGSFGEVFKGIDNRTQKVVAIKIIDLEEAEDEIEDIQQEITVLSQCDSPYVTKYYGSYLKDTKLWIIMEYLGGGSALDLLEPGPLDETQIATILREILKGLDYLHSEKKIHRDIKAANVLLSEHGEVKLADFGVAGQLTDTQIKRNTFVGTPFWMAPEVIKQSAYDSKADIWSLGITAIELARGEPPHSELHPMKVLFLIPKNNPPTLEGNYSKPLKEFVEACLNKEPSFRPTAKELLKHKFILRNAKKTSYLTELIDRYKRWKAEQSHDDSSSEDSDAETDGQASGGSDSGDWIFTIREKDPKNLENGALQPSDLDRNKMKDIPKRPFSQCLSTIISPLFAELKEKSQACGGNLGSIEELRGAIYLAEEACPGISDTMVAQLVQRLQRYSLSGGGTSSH
Epidermal growth factor receptor (Homo sapiens), P00533 [L861Q], sequence (P00533 whole entry L861Q): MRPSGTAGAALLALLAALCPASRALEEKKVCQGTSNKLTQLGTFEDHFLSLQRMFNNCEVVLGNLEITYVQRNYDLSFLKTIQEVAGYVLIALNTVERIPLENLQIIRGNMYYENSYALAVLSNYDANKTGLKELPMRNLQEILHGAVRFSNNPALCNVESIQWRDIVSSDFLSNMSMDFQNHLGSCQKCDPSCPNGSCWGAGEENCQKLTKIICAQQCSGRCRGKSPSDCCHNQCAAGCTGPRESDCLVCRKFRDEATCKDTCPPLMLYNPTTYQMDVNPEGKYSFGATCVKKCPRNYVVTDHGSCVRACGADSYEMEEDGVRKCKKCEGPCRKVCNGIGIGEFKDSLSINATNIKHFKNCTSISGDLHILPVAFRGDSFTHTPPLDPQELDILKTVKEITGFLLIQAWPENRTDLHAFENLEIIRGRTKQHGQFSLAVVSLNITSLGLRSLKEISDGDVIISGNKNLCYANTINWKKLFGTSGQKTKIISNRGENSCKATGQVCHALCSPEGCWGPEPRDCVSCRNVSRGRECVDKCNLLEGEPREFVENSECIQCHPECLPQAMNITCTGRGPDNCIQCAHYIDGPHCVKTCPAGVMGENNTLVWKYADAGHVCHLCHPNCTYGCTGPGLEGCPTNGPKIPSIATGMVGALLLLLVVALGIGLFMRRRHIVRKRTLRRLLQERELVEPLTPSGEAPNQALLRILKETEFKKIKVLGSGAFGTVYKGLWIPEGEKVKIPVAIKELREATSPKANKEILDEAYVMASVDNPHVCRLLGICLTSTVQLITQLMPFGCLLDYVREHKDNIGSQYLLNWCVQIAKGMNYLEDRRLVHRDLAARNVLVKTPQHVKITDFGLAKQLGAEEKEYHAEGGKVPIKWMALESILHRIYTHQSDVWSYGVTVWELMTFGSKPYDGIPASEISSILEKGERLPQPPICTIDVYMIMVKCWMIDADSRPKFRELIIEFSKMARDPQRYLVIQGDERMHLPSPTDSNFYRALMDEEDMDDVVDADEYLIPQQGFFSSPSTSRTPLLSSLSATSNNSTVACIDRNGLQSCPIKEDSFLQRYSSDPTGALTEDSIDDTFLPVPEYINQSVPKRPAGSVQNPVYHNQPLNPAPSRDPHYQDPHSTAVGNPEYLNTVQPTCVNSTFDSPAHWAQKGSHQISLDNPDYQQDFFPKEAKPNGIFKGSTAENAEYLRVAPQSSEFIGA
Epidermal growth factor receptor (Homo sapiens), P00533 [G719C], sequence (P00533 whole entry G719C): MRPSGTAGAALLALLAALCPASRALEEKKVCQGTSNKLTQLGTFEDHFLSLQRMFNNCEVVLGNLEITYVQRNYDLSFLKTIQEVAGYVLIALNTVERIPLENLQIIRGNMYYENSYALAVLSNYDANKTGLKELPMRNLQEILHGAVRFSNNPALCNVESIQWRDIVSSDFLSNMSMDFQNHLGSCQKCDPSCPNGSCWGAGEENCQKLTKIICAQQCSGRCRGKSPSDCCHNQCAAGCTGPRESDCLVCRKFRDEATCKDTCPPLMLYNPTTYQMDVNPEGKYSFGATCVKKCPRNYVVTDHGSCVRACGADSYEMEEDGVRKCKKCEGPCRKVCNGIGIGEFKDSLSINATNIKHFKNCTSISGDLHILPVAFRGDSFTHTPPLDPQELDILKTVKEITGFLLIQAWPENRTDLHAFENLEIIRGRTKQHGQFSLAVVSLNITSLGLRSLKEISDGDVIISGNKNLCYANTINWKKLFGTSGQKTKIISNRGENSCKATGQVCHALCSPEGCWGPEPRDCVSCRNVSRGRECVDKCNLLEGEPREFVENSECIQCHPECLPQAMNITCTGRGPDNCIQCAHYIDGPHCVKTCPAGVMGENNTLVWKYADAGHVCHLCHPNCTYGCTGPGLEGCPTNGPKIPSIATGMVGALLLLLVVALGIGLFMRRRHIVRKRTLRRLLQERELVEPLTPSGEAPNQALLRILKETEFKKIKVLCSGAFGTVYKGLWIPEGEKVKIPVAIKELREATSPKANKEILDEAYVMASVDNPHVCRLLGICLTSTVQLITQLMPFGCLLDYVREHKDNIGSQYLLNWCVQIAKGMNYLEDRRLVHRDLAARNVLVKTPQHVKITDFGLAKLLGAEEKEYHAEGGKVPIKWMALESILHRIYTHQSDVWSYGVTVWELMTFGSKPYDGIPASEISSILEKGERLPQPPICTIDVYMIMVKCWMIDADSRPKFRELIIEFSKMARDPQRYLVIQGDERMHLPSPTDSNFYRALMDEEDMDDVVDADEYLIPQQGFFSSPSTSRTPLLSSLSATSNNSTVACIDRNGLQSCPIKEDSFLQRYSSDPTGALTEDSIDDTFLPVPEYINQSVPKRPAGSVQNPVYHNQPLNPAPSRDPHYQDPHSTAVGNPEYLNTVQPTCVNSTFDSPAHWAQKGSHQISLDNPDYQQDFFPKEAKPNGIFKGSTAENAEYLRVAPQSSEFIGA
Epidermal growth factor receptor (Homo sapiens), P00533 [G719S], sequence (P00533 whole entry G719S): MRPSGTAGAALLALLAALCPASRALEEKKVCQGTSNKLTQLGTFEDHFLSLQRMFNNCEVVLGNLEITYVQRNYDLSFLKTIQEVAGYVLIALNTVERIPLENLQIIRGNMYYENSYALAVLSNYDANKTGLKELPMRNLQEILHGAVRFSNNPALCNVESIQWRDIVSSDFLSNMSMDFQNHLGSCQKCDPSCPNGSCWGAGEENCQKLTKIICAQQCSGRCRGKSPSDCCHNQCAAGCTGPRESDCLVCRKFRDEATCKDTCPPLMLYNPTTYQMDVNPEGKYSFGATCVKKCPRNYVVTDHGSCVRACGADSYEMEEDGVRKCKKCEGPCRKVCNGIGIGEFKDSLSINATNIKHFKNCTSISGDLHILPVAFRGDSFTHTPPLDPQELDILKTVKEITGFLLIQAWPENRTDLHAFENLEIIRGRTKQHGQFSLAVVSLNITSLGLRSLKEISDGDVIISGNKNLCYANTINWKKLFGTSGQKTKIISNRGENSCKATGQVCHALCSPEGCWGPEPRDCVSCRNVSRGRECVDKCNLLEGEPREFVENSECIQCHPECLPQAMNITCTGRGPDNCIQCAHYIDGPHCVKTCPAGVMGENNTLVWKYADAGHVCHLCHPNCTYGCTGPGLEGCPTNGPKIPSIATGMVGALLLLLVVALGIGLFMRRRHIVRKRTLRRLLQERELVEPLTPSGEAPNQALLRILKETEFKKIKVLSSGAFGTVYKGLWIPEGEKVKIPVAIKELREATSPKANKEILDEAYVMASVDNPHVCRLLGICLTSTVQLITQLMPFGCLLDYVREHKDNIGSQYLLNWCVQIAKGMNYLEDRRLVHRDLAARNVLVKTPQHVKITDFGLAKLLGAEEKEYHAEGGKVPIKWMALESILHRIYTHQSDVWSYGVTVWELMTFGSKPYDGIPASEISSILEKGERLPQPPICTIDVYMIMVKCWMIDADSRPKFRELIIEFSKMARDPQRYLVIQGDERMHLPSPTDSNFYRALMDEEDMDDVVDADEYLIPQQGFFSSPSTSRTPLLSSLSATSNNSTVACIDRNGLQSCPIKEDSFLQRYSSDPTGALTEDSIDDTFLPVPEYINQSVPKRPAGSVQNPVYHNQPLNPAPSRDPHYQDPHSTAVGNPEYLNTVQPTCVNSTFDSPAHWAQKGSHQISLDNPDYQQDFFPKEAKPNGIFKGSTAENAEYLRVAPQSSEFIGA

As for `Cn1cc(-n2cnc3c(NCc4nc5cc(Cl)c(Cl)cc5[nH]4)nc(N4CCOCC4)nc32)cn1`, the % of control in test [1] came to 1.16%.

In the case of `N#Cc1cccc(-c2c[nH]c3ncnc(N4CCOCC4)c23)c1`, in test [2], the % of control worked out at 99%.

`O=C(NOC[C@H](O)CO)c1ccc(F)c(F)c1Nc1ccc(I)cc1F` returned a % of control in test [3] of 85%.

As for `Cc1cc([C@@H](C)Nc2ccccc2C(=O)O)c2nc(N3CCOCC3)cc(=O)n2c1` [AZD-6482], the % of control in test [4] was determined as 93%.

As to `CC[C@@H]1[C@H](F)C(=O)N[C@@H]1COc1nccc2cc(C(N)=O)c(OC)cc12` [ZIMLOVISERTIB], the % of inhibition was -5.5% in [5] (at 0.01 µM); -23.7% in [5] (at 0.04 µM); -87.3% in test [5] (at 0.2 µM); -76.3% in test [5] (at 1 µM); -29.4% in [5] (at 5 µM).

For the compound `COc1cc(Nc2nc(C)cc(-c3cnn4nc(OC)ccc34)n2)cc(C(F)(F)F)c1`, the % of control in test [6] was 94%; in test [7] it was 100%; in test [8], 100%; in test [9] it was 100%; in [10], 89%; in [11], 95%. The values for the % of control in test [12] and in [13] were 68% and 93%, respectively.
